From paper PMC11093982, “Structural and mechanistic insights into Quinolone Synthase to address its functional promiscuity” (Communications Biology, 2024)
Read-outs that look alike come from different tables or passages of the source.

Biological target: AmQNS (quinolone synthase) (Aegle marmelos, UniProt M1HE54)
Test: Surface plasmon resonance (SPR) AmQNS-substrate interaction studies
Assay type: binding
Details: for association rate constant (kon): SPR association rate; for dissociation rate constant (koff): SPR dissociation rate
Source text: ProteOn XPR array system[21] and ‘GLM’ sensor chip was used for the SPR interaction studies. […] Here, amine coupling works, where the amine groups present in the AmQNS covalently bind to the chemically activated carboxyl groups of the dextran molecules. Channel L3 and L4 were used for immobilization of protein while L2 was used as reference. The extent of non-specific interactions was eliminated or reduced by optimizing the buffer conditions. […] N-methylanthraniloyl-CoA was purchased from TransMIT (Plant MetaChem, www.plantmetachem.com), whereas all other substrates were purchased from Sigma-Aldrich (www.sigmaaldrich.com).
Following AmQNS immobilization and its stability screening, all binding studies were done at 30 °C. The SPR-based system measures the changes in refractive index to investigate the direct interaction between AmQNS and different CoA substrates. […] In our experiments, AmQNS was captured on the surface of the GLM sensor chip and used to screen the preferred substrates (acyl-CoA’s) in the presence and absence of malonyl-CoA. […] The sensogram was prepared by processing the data (after subtraction of L2 responses (reference channel). Baseline drift due to the bulk refractive index change, non-specific binding, matrix effects and injection noise were also corrected using the reference spots. Further, the responses obtained from the AmQNS-small molecular interactions at different concentrations were fitted using the Langmuir 1:1 biomolecular interaction model using the ProteOn Manager software version 3.1.0.6 (Bio-Rad, USA). Equilibrium dissociation constants (KD) were calculated from the ratio of the association and dissociation rates.

[1] = AmQNS immobilized on GLM chip, 30 °C, Langmuir 1:1 model
[2] = SPR, AmQNS immobilized on GLM chip, 30 °C, Langmuir 1:1 model, read-out: KD (KD= kd /ka)
[3] = SPR, AmQNS immobilized on GLM chip, 30 °C, in presence of malonyl-CoA, Langmuir 1:1 model, read-out: KD

Chain of AmQNS (quinolone synthase) (M1HE54 entry or part of it): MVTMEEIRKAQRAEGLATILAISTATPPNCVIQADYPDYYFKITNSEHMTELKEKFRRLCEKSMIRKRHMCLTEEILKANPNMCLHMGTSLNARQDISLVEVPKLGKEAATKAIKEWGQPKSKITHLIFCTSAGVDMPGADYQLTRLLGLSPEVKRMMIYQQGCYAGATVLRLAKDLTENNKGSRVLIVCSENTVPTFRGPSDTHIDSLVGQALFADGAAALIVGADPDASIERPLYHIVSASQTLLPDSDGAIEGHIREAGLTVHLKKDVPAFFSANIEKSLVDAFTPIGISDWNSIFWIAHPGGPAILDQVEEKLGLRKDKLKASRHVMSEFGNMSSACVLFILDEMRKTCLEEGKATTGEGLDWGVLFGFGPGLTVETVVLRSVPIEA

With `CC(C)(COP(=O)(O)OP(=O)(O)OC[C@H]1O[C@@H](n2cnc3c(N)ncnc32)[C@H](O)[C@@H]1OP(=O)(O)O)[C@@H](O)C(=O)NCCC(=O)NCCSC(=O)c1ccccc1` [Benzoyl-CoA] the “association rate constant (kon)” value [1] was 9510 M⁻¹ s⁻¹, the “dissociation rate constant (koff)” value [1] was 0.0267 s⁻¹ and the Kd [2] was 2800 nM.
For `CCCC(=O)SCCNC(=O)CCNC(=O)[C@H](O)C(C)(C)COP(=O)(O)OP(=O)(O)OC[C@H]1O[C@@H](n2cnc3c(N)ncnc32)[C@H](O)[C@@H]1OP(=O)(O)O` [Butyryl-CoA], the Kd was 1370 nM, the “association rate constant (kon)” value [1] was 36100 M⁻¹ s⁻¹ and the “dissociation rate constant (koff)” value [1] was 0.0495 s⁻¹.
`COc1cc(/C=C/C(=O)SCCNC(=O)CCNC(=O)[C@H](O)C(C)(C)COP(=O)(O)OP(=O)(O)OC[C@H]2O[C@@H](n3cnc4c(N)ncnc43)[C@H](O)[C@@H]2OP(=O)(O)O)ccc1O` [Feruloyl-CoA] was tested, and the “association rate constant (kon)” value [1] was 1e+08 M⁻¹ s⁻¹, the “dissociation rate constant (koff)” value [1] was 0.983 s⁻¹ and the Kd [3] was 9.83 nM.
For `CCCCCC(=O)SCCNC(=O)CCNC(=O)[C@H](O)C(C)(C)COP(=O)(O)OP(=O)(O)OC[C@H]1O[C@@H](n2cnc3c(N)ncnc32)[C@H](O)[C@@H]1OP(=O)(O)O` [Hexanoyl-CoA], the “association rate constant (kon)” value [1] was 963000 M⁻¹ s⁻¹, the “dissociation rate constant (koff)” value [1] was 0.00703 s⁻¹ and the Kd [3] was 7.3 nM.
`CC(C)(COP(=O)(O)OP(=O)(O)OC[C@H]1O[C@@H](n2cnc3c(N)ncnc32)[C@H](O)[C@@H]1OP(=O)(O)O)[C@@H](O)C(=O)NCCC(=O)NCCSC(=O)CC(=O)O` [Malonyl-CoA] was tested, and the “association rate constant (kon)” value [1] was 78200 M⁻¹ s⁻¹, the “dissociation rate constant (koff)” value [1] was 0.0134 s⁻¹ and the Kd [2] was 172 nM.
For `CCCCCCCCCCCCCC(=O)SCCNC(=O)CCNC(=O)[C@H](O)C(C)(C)COP(=O)(O)OP(=O)(O)OC[C@H]1O[C@@H](n2cnc3c(N)ncnc32)[C@H](O)[C@@H]1OP(=O)(O)O` [Myristoyl-CoA], the “association rate constant (kon)” value [1] was 13000 M⁻¹ s⁻¹ and the “dissociation rate constant (koff)” value [1] was 0.00404 s⁻¹.
With `CNc1ccccc1C(=O)SCCNC(=O)CCNC(=O)[C@H](O)C(C)(C)COP(=O)(O)OP(=O)(O)OC[C@H]1O[C@@H](n2cnc3c(N)ncnc32)[C@H](O)[C@@H]1OP(=O)(O)O` [N-methylanthraniloyl-CoA] the “association rate constant (kon)” value [1] was 1e+08 M⁻¹ s⁻¹, the “dissociation rate constant (koff)” value [1] was 0.204 s⁻¹ and the Kd [3] was 2.04 nM.
For `CCCCCCCCCCCCCCCC(=O)SCCNC(=O)CCNC(=O)[C@H](O)C(C)(C)COP(=O)(O)OP(=O)(O)OC[C@H]1O[C@@H](n2cnc3c(N)ncnc32)[C@H](O)[C@@H]1OP(=O)(O)O` [Palmitoyl-CoA], the “association rate constant (kon)” value [1] was 45800 M⁻¹ s⁻¹, the “dissociation rate constant (koff)” value [1] was 0.00417 s⁻¹ and the Kd [2] was 91.1 nM.
For `COc1cc(/C=C/C(=O)SCCNC(=O)CCNC(=O)[C@H](O)C(C)(C)COP(=O)(O)OP(=O)(O)OC[C@H]2O[C@@H](n3cnc4c(N)ncnc43)[C@H](O)[C@@H]2OP(=O)(O)O)cc(OC)c1O` [Sinapoyl-CoA], the “association rate constant (kon)” value [1] was 141000 M⁻¹ s⁻¹, the “dissociation rate constant (koff)” value [1] was 0.0163 s⁻¹ and the Kd [2] was 116 nM.
In the case of `CCCCCCCCCCCCCCCCCC(=O)SCCNC(=O)CCNC(=O)[C@H](O)C(C)(C)COP(=O)(O)OP(=O)(O)OC[C@H]1O[C@@H](n2cnc3c(N)ncnc32)[C@H](O)[C@@H]1OP(=O)(O)O` [Stearoyl-CoA], the “association rate constant (kon)” value [1] is reported as 11700 M⁻¹ s⁻¹, the “dissociation rate constant (koff)” value [1] is reported as 0.00193 s⁻¹ and the Kd [2] is reported as 164 nM.
In the case of `CC(C)(COP(=O)(O)OP(=O)(O)OC[C@H]1O[C@@H](n2cnc3c(N)ncnc32)[C@H](O)[C@@H]1OP(=O)(O)O)[C@@H](O)C(=O)NCCC(=O)NCCSC(=O)/C=C/c1ccc(O)cc1` [p-coumaroyl CoA], the “association rate constant (kon)” value [1] is reported as 591000 M⁻¹ s⁻¹, the “dissociation rate constant (koff)” value [1] is reported as 0.0595 s⁻¹ and the Kd [2] is reported as 101 nM.
